Tested on in the first data set: not listed separately
In words: Octanol-water partition coefficient, log P of the compound. Format: physicochemical.
Details: not given
On to `COC(=O)[C@]1(C)CCC[C@]2(C)c3ccc(C(C)C)c(NC(=O)Cn4cc(-c5cccc(OC)c5)nn4)c3CC[C@@H]12`, for which the logP turned out to be 5.23.
Same read-out and setting: as for `COC(=O)[C@]1(C)CCC[C@]2(C)c3ccc(C(C)C)c(NC(=O)Cn4cc(-c5ccc(OC(F)(F)F)cc5)nn4)c3CC[C@@H]12`, the figure is 6.17; as for `COC(=O)[C@]1(C)CCC[C@]2(C)c3ccc(C(C)C)c(NC(=O)Cn4cc(-c5ccccc5OC)nn4)c3CC[C@@H]12`, 5.21; as for `COC(=O)c1nnn(CC(=O)Nc2c(C(C)C)ccc3c2CC[C@H]2[C@](C)(C(=O)OC)CCC[C@]32C)c1C(=O)OC`, 3.67.
The compound `COC(=O)[C@]1(C)CCC[C@]2(C)c3ccc(C(C)C)c(NC(=O)Cn4cc(-c5ccc6ccccc6c5)nn4)c3CC[C@@H]12` showed a logP of 6.38.
As to `COC(=O)[C@]1(C)CCC[C@]2(C)c3ccc(C(C)C)c(NC(=O)Cn4cc(-c5cccc(NC(C)=O)c5)nn4)c3CC[C@@H]12`, the logP amounted to 4.39.
The compound `COC(=O)[C@]1(C)CCC[C@]2(C)c3ccc(C(C)C)c(NC(=O)Cn4cc(-c5ccc(OC)cc5)nn4)c3CC[C@@H]12` displayed a lipophilicity (logP) of 5.28.
Same read-out and setting: under `COC(=O)[C@]1(C)CCC[C@]2(C)c3ccc(C(C)C)c(NC(=O)Cn4cc(C5CC5)nn4)c3CC[C@@H]12` stands 4.11.

For the next data set, the system named is MDA-MB-231. In words: Cytotoxicity against human MDA-MB-231 cells assessed as reduction in cell viability after 72 hrs by MTT assay. Format: functional, cell-based. Conditions: MDA-MB-231, 72 h.
With `COC(=O)[C@]1(C)CCC[C@]2(C)c3ccc(C(C)C)c(NC(=O)Cn4cc(-c5cccc(OC)c5)nn4)c3CC[C@@H]12`, the half-inhibitory concentration (IC50) was determined as 1.4 µM.
Still for that read-out and setting: under `COC(=O)[C@]1(C)CCC[C@]2(C)c3ccc(C(C)C)c(NC(=O)Cn4cc(-c5ccc(OC(F)(F)F)cc5)nn4)c3CC[C@@H]12` stands 23.4 µM; under `COC(=O)[C@]1(C)CCC[C@]2(C)c3ccc(C(C)C)c(NC(=O)Cn4cc(-c5ccccc5OC)nn4)c3CC[C@@H]12`, 1.8 µM; under `COC(=O)c1nnn(CC(=O)Nc2c(C(C)C)ccc3c2CC[C@H]2[C@](C)(C(=O)OC)CCC[C@]32C)c1C(=O)OC`, 8.2 µM.
The same measure, in the same setting: as for `COC(=O)[C@]1(C)CCC[C@]2(C)c3ccc(C(C)C)c(NC(=O)Cn4cc(-c5ccc6ccccc6c5)nn4)c3CC[C@@H]12`, the figure is 27 µM.
The same measure, in the same setting: under `COC(=O)[C@]1(C)CCC[C@]2(C)c3ccc(C(C)C)c(NC(=O)Cn4cc(-c5cccc(NC(C)=O)c5)nn4)c3CC[C@@H]12` stands 5.9 µM; under `COC(=O)[C@]1(C)CCC[C@]2(C)c3ccc(C(C)C)c(NC(=O)Cn4cc(-c5ccc(OC)cc5)nn4)c3CC[C@@H]12`, 1.8 µM; under `COC(=O)[C@]1(C)CCC[C@]2(C)c3ccc(C(C)C)c(NC(=O)Cn4cc(C5CC5)nn4)c3CC[C@@H]12`, 16.2 µM.

Another data set has as its system SK-OV-3. In words: Cytotoxicity against human SKOV3 cells assessed as reduction in cell viability after 72 hrs by MTT assay. Format: functional, cell-based. As to conditions: SK-OV-3, 72 h.
With `COC(=O)[C@]1(C)CCC[C@]2(C)c3ccc(C(C)C)c(NC(=O)Cn4cc(-c5cccc(OC)c5)nn4)c3CC[C@@H]12`, the half-inhibitory concentration (IC50) was 0.9 µM.
For `COC(=O)[C@]1(C)CCC[C@]2(C)c3ccc(C(C)C)c(NC(=O)Cn4cc(-c5ccc(OC(F)(F)F)cc5)nn4)c3CC[C@@H]12`, the IC50 turned out to be 20.3 µM.
The same measure, in the same setting: under `COC(=O)[C@]1(C)CCC[C@]2(C)c3ccc(C(C)C)c(NC(=O)Cn4cc(-c5ccccc5OC)nn4)c3CC[C@@H]12` stands 1.4 µM; under `COC(=O)c1nnn(CC(=O)Nc2c(C(C)C)ccc3c2CC[C@H]2[C@](C)(C(=O)OC)CCC[C@]32C)c1C(=O)OC`, 25.3 µM; under `COC(=O)[C@]1(C)CCC[C@]2(C)c3ccc(C(C)C)c(NC(=O)Cn4cc(-c5ccc6ccccc6c5)nn4)c3CC[C@@H]12`, 45.3 µM.
On the same count and under the same terms, under `COC(=O)[C@]1(C)CCC[C@]2(C)c3ccc(C(C)C)c(NC(=O)Cn4cc(-c5cccc(NC(C)=O)c5)nn4)c3CC[C@@H]12` stands 3.9 µM; under `COC(=O)[C@]1(C)CCC[C@]2(C)c3ccc(C(C)C)c(NC(=O)Cn4cc(-c5ccc(OC)cc5)nn4)c3CC[C@@H]12`, 1.4 µM; under `COC(=O)[C@]1(C)CCC[C@]2(C)c3ccc(C(C)C)c(NC(=O)Cn4cc(C5CC5)nn4)c3CC[C@@H]12`, 19.4 µM.

In the next data set the test system is NCI/ADR-RES. In words: Growth inhibition of human MCF7/ADR cells after 72 hrs by MTT assay. Format: functional, cell-based.
Details: not given
Consider `COC(=O)[C@]1(C)CCC[C@]2(C)c3ccc(C(C)C)c(NC(=O)Cn4cc(-c5cccc(OC)c5)nn4)c3CC[C@@H]12`, for which the “growth inhibition (GI)” value is “Dose-dependent effect”.
On the same count and under the same terms, as for `COC(=O)[C@]1(C)CCC[C@]2(C)c3ccc(C(C)C)c(NC(=O)Cn4cc(-c5ccc(OC)cc5)nn4)c3CC[C@@H]12`, the entry is “Dose-dependent effect”.

For another data set, the system named is MCF7. In words: cells. Conditions: Homo sapiens, MCF7, 72 h.
Description: Cytotoxicity against human MCF7 cells assessed as reduction in cell viability after 72 hrs by MTT assay
In turn, `COC(=O)[C@]1(C)CCC[C@]2(C)c3ccc(C(C)C)c(NC(=O)Cn4cc(-c5cccc(OC)c5)nn4)c3CC[C@@H]12` came in with an IC50 of 0.8 µM.
On the same count and under the same terms, as for `COC(=O)[C@]1(C)CCC[C@]2(C)c3ccc(C(C)C)c(NC(=O)Cn4cc(-c5ccc(OC(F)(F)F)cc5)nn4)c3CC[C@@H]12`, the figure is 9.2 µM.
On the same count and under the same terms, as for `COC(=O)[C@]1(C)CCC[C@]2(C)c3ccc(C(C)C)c(NC(=O)Cn4cc(-c5ccccc5OC)nn4)c3CC[C@@H]12`, the figure is 1 µM; as for `COC(=O)c1nnn(CC(=O)Nc2c(C(C)C)ccc3c2CC[C@H]2[C@](C)(C(=O)OC)CCC[C@]32C)c1C(=O)OC`, 15.6 µM; as for `COC(=O)[C@]1(C)CCC[C@]2(C)c3ccc(C(C)C)c(NC(=O)Cn4cc(-c5ccc6ccccc6c5)nn4)c3CC[C@@H]12`, 12.1 µM.
On the same count and under the same terms, under `COC(=O)[C@]1(C)CCC[C@]2(C)c3ccc(C(C)C)c(NC(=O)Cn4cc(-c5cccc(NC(C)=O)c5)nn4)c3CC[C@@H]12` stands 1.5 µM; under `COC(=O)[C@]1(C)CCC[C@]2(C)c3ccc(C(C)C)c(NC(=O)Cn4cc(-c5ccc(OC)cc5)nn4)c3CC[C@@H]12`, 1.4 µM; under `COC(=O)[C@]1(C)CCC[C@]2(C)c3ccc(C(C)C)c(NC(=O)Cn4cc(C5CC5)nn4)c3CC[C@@H]12`, 24.2 µM.

A further data set has as its system PC-3. The experiment in a line: Cytotoxicity against human PC3 cells assessed as reduction in cell viability after 72 hrs by MTT assay. Format: functional, cell-based. Conditions: PC-3, 72 h.
As to `COC(=O)[C@]1(C)CCC[C@]2(C)c3ccc(C(C)C)c(NC(=O)Cn4cc(-c5cccc(OC)c5)nn4)c3CC[C@@H]12`, the half-inhibitory concentration (IC50) stood at 1.1 µM.
Same read-out and setting: under `COC(=O)[C@]1(C)CCC[C@]2(C)c3ccc(C(C)C)c(NC(=O)Cn4cc(-c5ccc(OC(F)(F)F)cc5)nn4)c3CC[C@@H]12` stands 12.1 µM.
Same read-out and setting: under `COC(=O)[C@]1(C)CCC[C@]2(C)c3ccc(C(C)C)c(NC(=O)Cn4cc(-c5ccccc5OC)nn4)c3CC[C@@H]12` stands 2.3 µM; under `COC(=O)c1nnn(CC(=O)Nc2c(C(C)C)ccc3c2CC[C@H]2[C@](C)(C(=O)OC)CCC[C@]32C)c1C(=O)OC`, 49 µM; under `COC(=O)[C@]1(C)CCC[C@]2(C)c3ccc(C(C)C)c(NC(=O)Cn4cc(-c5ccc6ccccc6c5)nn4)c3CC[C@@H]12`, 9.1 µM.
The same measure, in the same setting: under `COC(=O)[C@]1(C)CCC[C@]2(C)c3ccc(C(C)C)c(NC(=O)Cn4cc(-c5cccc(NC(C)=O)c5)nn4)c3CC[C@@H]12` stands 10.1 µM; under `COC(=O)[C@]1(C)CCC[C@]2(C)c3ccc(C(C)C)c(NC(=O)Cn4cc(-c5ccc(OC)cc5)nn4)c3CC[C@@H]12`, 1.9 µM.
In the case of `COC(=O)[C@]1(C)CCC[C@]2(C)c3ccc(C(C)C)c(NC(=O)Cn4cc(C5CC5)nn4)c3CC[C@@H]12`, the half-maximal inhibitory concentration (IC50) amounted to 12.3 µM.

In another data set the test system is NCI/ADR-RES. In words: Growth inhibition of human MCF7/ADR cells at 2.5 to 5 uM after 72 hrs by MTT assay relative to control. Format: functional.
Details: not given
For the compound `COC(=O)[C@]1(C)CCC[C@]2(C)c3ccc(C(C)C)c(NC(=O)Cn4cc(-c5cccc(OC)c5)nn4)c3CC[C@@H]12`, the “growth inhibition (GI)” value is reported as greater than 50%.
Consider `COC(=O)[C@]1(C)CCC[C@]2(C)c3ccc(C(C)C)c(NC(=O)Cn4cc(-c5ccc(OC)cc5)nn4)c3CC[C@@H]12`, for which the “growth inhibition (GI)” value was greater than 50%.

The record behind these values is ChEMBL document CHEMBL4130367, “Click chemistry-based synthesis and anticancer activity evaluation of novel C-14 1,2,3-triazole dehydroabietic acid hybrids” (Eur J Med Chem, 2017).
